Patent EP2954896A1, “Small molecule inhibitors of the E3 Ligase Skp2 in depression and other diseases” (Max-Planck-Gesellschaft zur Förderung der Wissenschaften …, priority 2014, dated 2015)

Legend:
[1] = Chronic PAR treatment after chronic social defeat stress: behavioral tests (open field, social avoidance, forced swim); format: in vivo; conditions: FKBP51-deleted versus wild type mice
Source text: After cessation of the stressor, groups were subdivided into vehicle-treated and paroxetine-treated animals, resulting in 8 groups (n = 7-13 per group). The treatment phase lasted for three weeks. The behavioral tests took place during the last week of the paroxetine treatment. The CSDS paradigm lasted for 21 days. Briefly, the experimental mice were introduced into the home cage (45 cm x 25 cm) of a dominant resident mouse and defeated shortly after. When the defeat was achieved, the animals were separated by a wire mesh, preventing physical but allowing sensory contact for 24 h. Each day, stressed animals were defeated by another unfamiliar, dominant resident mouse in order to exclude a repeated encounter throughout the experiment. The daily defeat was performed between 11:00 and 16:00 h; varying starting times reduced the predictability of the stressor and therefore minimized a potential habituation effect. […] Both stress and control animals were handled daily during the stress procedure; body weight for all mice was assessed at the beginning of the experiment, after the cessation of the stress period, and on the day of killing. […] All tests were analyzed using an automated videotracking system (Anymaze 4.20, Stoelting, Wood Dale, IL). […] Time spent immobile (floating) and time spent struggling was scored by an experienced observer, blind to treatment or condition of the animals.

[2] = Chronic PAR treatment after chronic social defeat stress: physiological and neuroendocrine parameters; format: in vivo, mice
Source text: Initially, wild-type and 51 KOmice were split into 2 x 2 groups (control WT, control FKBP51^-/-, defeat WT, defeat FKBP51^-/-) and subjected to the chronic stress procedure described below. After cessation of the stressor, groups were subdivided into vehicle-treated and paroxetine-treated animals, resulting in 8 groups (n = 7-13 per group). The treatment phase lasted for three weeks. The behavioral tests took place during the last week of the paroxetine treatment.
The CSDS paradigm lasted for 21 days. Briefly, the experimental mice were introduced into the home cage (45 cm x 25 cm) of a dominant resident mouse and defeated shortly after. When the defeat was achieved, the animals were separated by a wire mesh, preventing physical but allowing sensory contact for 24 h. Each day, stressed animals were defeated by another unfamiliar, dominant resident mouse in order to exclude a repeated encounter throughout the experiment. The daily defeat was performed between 11:00 and 16:00 h; varying starting times reduced the predictability of the stressor and therefore minimized a potential habituation effect. […] Both stress and control animals were handled daily during the stress procedure; body weight for all mice was assessed at the beginning of the experiment, after the cessation of the stress period, and on the day of killing. […]

Fc1ccc([C@@H]2CCNC[C@H]2COc2ccc3c(c2)OCO3)cc1 [PAR, paroxetine]
enhancing struggling and reducing floating, forced swim test [1]: significantly less effective | paroxetine-induced body weight increase ([2]; 51 KO versus wild-type mice): significantly less affected | paroxetine-induced body weight increase ([2]; basal conditions versus stressed animals): significantly enhanced in mice under basal conditions compared to stressed animals
